The values that follow come from US12460265B2, “Post-treatment breast cancer prognosis” (Biotheranostics, Inc., priority 2010, dated 2025).

The structures appear in SMILES notation.

In assay [1] the test system is primary ER+ breast cancer. Particulars: post-tamoxifen treatment; subjects with primary ER+ breast cancer; cited from earlier work.
A further assay has as its system ER+ breast cancer. Briefly: NCIC CTG MA.17 case-control study: cancer recurrence after 5 years of adjuvant tamoxifen, letrozole vs placebo. Format: in vivo, human. Particulars: for Cases (cancer recurrence), number / Cases (cancer recurrence), percent: Letrozole arm. The source says: Samples from the NCIC CTG MA.17 cohort (see Goss et al., J. Clin. Oncol., 26(12):1948-1955, 2008) were used. 100 cases with 200 controls were used. The 100 cases included 61 cases of distant cancer recurrence; 17 cases of local cancer recurrence; 5 cases of regional cancer recurrence; 16 cases of contralateral recurrences; and 1 unknown case. Of these, the contralateral and unknown cases were excluded.
Clinical follow-up data were available for the samples used, which were formalin-fixed paraffin-embedded (FFPE) tumor blocks from the time of diagnosis. Odds ratios were calculated with analysis of BCI, H:I, HoxB13 and MGI as continuous and categorical variables. Multivariate analysis also included age, tumor grade and treatment in the analysis. Treatment interaction: age and tumor grade were also included in the analysis. P-values were calculated for the interaction term.
STATISTICAL ANALYSES: Kaplan-Meier analysis with logrank test and Cox proportional hazards regression were performed to assess the association of gene expression indexes with clinical outcome. Multivariate Cox regression models were performed to assess the prognostic capacity of gene expression indexes after adjusting for known prognostic factors.
Proportional hazards (PH) assumption was checked by scaled Schoenfeld residuals; variables violating PH assumption were adjusted for in the model through stratification. To account for the case-cohort design of the Table 1 cohort, we used weighted Kaplan-Meier analysis and Cox regression models with modifications to handle case-cohort designs (see ^19,20 as implemented in the survey package in R (www.r-project.org). To test for interaction between dichotomized MGI and the H:I ratio in Cox regression models, the Wald statistic was used in the Table 1 cohort and likelihood ratio test was used in the last cohort.

For the compound `N#Cc1ccc(C(c2ccc(C#N)cc2)n2cncn2)cc1` [Letrozole, letrozole], the “breast cancer-free survival and distant breast cancer-free survival” value in assay [1] was “improves breast cancer-free survival and distant breast cancer-free survival”. For the same compound, in the assay on ER+ breast cancer (High HoxB13 expression), the “Cases (cancer recurrence), number” value is 17 and the “Cases (cancer recurrence), percent” value was “(28%)”. For the same compound, in the assay with ER+ breast cancer (Low HoxB13 expression), the “Cases (cancer recurrence), number” value amounted to 14 and the “Cases (cancer recurrence), percent” value was “(23%)”. The “Odds Ratio, Treatment (Placebo vs Letrozole), in relation to cancer recurrence” value in the assay on ER+ breast cancer (univariate analysis, MA.17 subjects, 95% CI in the next column) is recorded as 2.02.
